{
  "source": "ChEMBL document CHEMBL1201862",
  "about": "“PubChem BioAssay data set” (2004)",
  "experiment_in_all_cases": "growth of human tumour cells (NCI), 48 h",
  "key": {"NCI-H226": {"tested_on": "NCI-H226"}, "CCRF-CEM": {"tested_on": "CCRF-CEM"}, "RPMI-8226": {"tested_on": "RPMI-8226"}, "OVCAR-4": {"tested_on": "OVCAR-4"}, "SK-OV-3": {"tested_on": "SK-OV-3"}, "SK-MEL-5": {"tested_on": "SK-MEL-5"}, "MDA-MB-435": {"tested_on": "MDA-MB-435"}, "Hs-578T": {"tested_on": "Hs-578T"}, "K562": {"tested_on": "K562"}, "UACC-257": {"tested_on": "UACC-257"}, "HOP-92": {"tested_on": "HOP-92"}, "786-0": {"tested_on": "786-0"}, "A498": {"tested_on": "A498"}, "SF-268": {"tested_on": "SF-268"}, "SR": {"tested_on": "SR"}, "NCI/ADR-RES": {"tested_on": "NCI/ADR-RES"}, "SK-MEL-28": {"tested_on": "SK-MEL-28"}, "HCT-15": {"tested_on": "HCT-15"}, "BT-549": {"tested_on": "BT-549"}, "COLO 205": {"tested_on": "COLO 205"}, "HT-29": {"tested_on": "HT-29"}, "OVCAR-8": {"tested_on": "OVCAR-8"}, "PC-3": {"tested_on": "PC-3"}, "SK-MEL-2": {"tested_on": "SK-MEL-2"}, "MDA-N": {"tested_on": "MDA-N"}, "EKVX": {"tested_on": "EKVX"}, "MCF7": {"tested_on": "MCF7"}, "MDA-MB-231": {"tested_on": "MDA-MB-231"}, "IGROV-1": {"tested_on": "IGROV-1"}, "Malme-3M": {"tested_on": "Malme-3M"}, "SF-539": {"tested_on": "SF-539"}, "NCI-H23": {"tested_on": "NCI-H23"}, "HOP-62": {"tested_on": "HOP-62"}, "MOLT-4": {"tested_on": "MOLT-4"}, "NCI-H522": {"tested_on": "NCI-H522"}, "OVCAR-3": {"tested_on": "OVCAR-3"}, "HCT-116": {"tested_on": "HCT-116"}, "HL-60": {"tested_on": "HL-60"}, "M14": {"tested_on": "M14"}, "KM12": {"tested_on": "KM12"}, "OVCAR-5": {"tested_on": "OVCAR-5"}, "SN12C": {"tested_on": "SN12C"}, "A549": {"tested_on": "A549"}, "SNB-19": {"tested_on": "SNB-19"}, "UO-31": {"tested_on": "UO-31"}, "ACHN": {"tested_on": "ACHN"}, "SF-295": {"tested_on": "SF-295"}, "NCI-H460": {"tested_on": "NCI-H460"}, "UACC-62": {"tested_on": "UACC-62"}, "SW-620": {"tested_on": "SW-620"}, "LOX IMVI": {"tested_on": "LOX IMVI"}, "TK-10": {"tested_on": "TK-10"}, "CAKI-1": {"tested_on": "CAKI-1"}, "U-251": {"tested_on": "U-251"}},
  "note": "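Compound exposure: 48 hours, 5 concentrations, 96-well plates. At the GI50, growth is halved.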 Calls of active or inactive are those of the source. Cut-off read from the data, not from the text of the source: active = GI50 up to about 1.1 µM and inactive = higher.",
  "data": [
    {"smiles": "COc1cc2c(cc1OC)C13CCN4CC5=CCOC(CC(=O)O)C(C5CC41)C3N2", "note": "(centres undefined)", "values": [
      {"measurement": "GI50", "setting": "NCI-H226", "result": "> 100 µM (inactive)"},
      {"measurement": "GI50", "setting": "CCRF-CEM", "result": "61.1 µM (inactive)"},
      {"measurement": "GI50", "setting": "RPMI-8226", "result": "> 100 µM (inactive)"},
      {"measurement": "GI50", "setting": "OVCAR-4", "result": "> 100 µM (inactive)"},
      {"measurement": "GI50", "setting": "SK-OV-3", "result": "> 100 µM (inactive)"},
      {"measurement": "GI50", "setting": "SK-MEL-5", "result": "> 100 µM (inactive)"},
      {"measurement": "GI50", "setting": "MDA-MB-435", "result": "> 100 µM (inactive)"},
      {"measurement": "GI50", "setting": "Hs-578T", "result": "> 100 µM (inactive)"},
      {"measurement": "GI50", "setting": "K562", "result": "> 100 µM (inactive)"},
      {"measurement": "GI50", "setting": "UACC-257", "result": "> 100 µM (inactive)"},
      {"measurement": "GI50", "setting": "HOP-92", "result": "78.3 µM (inactive)"},
      {"measurement": "GI50", "setting": "786-0", "result": "> 100 µM (inactive)"},
      {"measurement": "GI50", "setting": "A498", "result": "> 100 µM (inactive)"},
      {"measurement": "GI50", "setting": "SF-268", "result": "> 100 µM (inactive)"},
      {"measurement": "GI50", "setting": "SR", "result": "> 100 µM (inactive)"},
      {"measurement": "GI50", "setting": "NCI/ADR-RES", "result": "> 100 µM (inactive)"},
      {"measurement": "GI50", "setting": "SK-MEL-28", "result": "> 100 µM (inactive)"},
      {"measurement": "GI50", "setting": "HCT-15", "result": "> 100", "unit": "µM"},
      {"measurement": "GI50", "setting": "BT-549", "result": "> 100 µM (inactive)"},
      {"measurement": "GI50", "setting": "COLO 205", "result": "> 100 µM (inactive)"},
      {"measurement": "GI50", "setting": "HT-29", "result": "> 100 µM (inactive)"},
      {"measurement": "GI50", "setting": "OVCAR-8", "result": "> 100 µM (inactive)"},
      {"measurement": "GI50", "setting": "PC-3", "result": "> 100 µM (inactive)"},
      {"measurement": "GI50", "setting": "SK-MEL-2", "result": "> 100 µM (inactive)"},
      {"measurement": "GI50", "setting": "MDA-N", "result": "> 100 µM (inactive)"},
      {"measurement": "GI50", "setting": "EKVX", "result": "> 100 µM (inactive)"},
      {"measurement": "GI50", "setting": "MCF7", "result": "> 100 µM (inactive)"},
      {"measurement": "GI50", "setting": "MDA-MB-231", "result": "> 100 µM (inactive)"},
      {"measurement": "GI50", "setting": "IGROV-1", "result": "> 100 µM (inactive)"},
      {"measurement": "GI50", "setting": "Malme-3M", "result": "> 100 µM (inactive)"},
      {"measurement": "GI50", "setting": "SF-539", "result": "> 100 µM (inactive)"},
      {"measurement": "GI50", "setting": "NCI-H23", "result": "> 100 µM (inactive)"},
      {"measurement": "GI50", "setting": "HOP-62", "result": "> 100 µM (inactive)"},
      {"measurement": "GI50", "setting": "MOLT-4", "result": "> 100 µM (inactive)"},
      {"measurement": "GI50", "setting": "NCI-H522", "result": "> 100 µM (inactive)"},
      {"measurement": "GI50", "setting": "OVCAR-3", "result": "> 100 µM (inactive)"},
      {"measurement": "GI50", "setting": "HCT-116", "result": "> 100 µM (inactive)"},
      {"measurement": "GI50", "setting": "HL-60", "result": "> 100 µM (inactive)"},
      {"measurement": "GI50", "setting": "M14", "result": "> 100 µM (inactive)"},
      {"measurement": "GI50", "setting": "KM12", "result": "> 100 µM (inactive)"},
      {"measurement": "GI50", "setting": "OVCAR-5", "result": "> 100 µM (inactive)"},
      {"measurement": "GI50", "setting": "SN12C", "result": "> 100 µM (inactive)"},
      {"measurement": "GI50", "setting": "A549", "result": "> 100 µM (inactive)"},
      {"measurement": "GI50", "setting": "SNB-19", "result": "> 100 µM (inactive)"},
      {"measurement": "GI50", "setting": "UO-31", "result": "> 100 µM (inactive)"},
      {"measurement": "GI50", "setting": "ACHN", "result": "> 100 µM (inactive)"},
      {"measurement": "GI50", "setting": "SF-295", "result": "> 100 µM (inactive)"},
      {"measurement": "GI50", "setting": "NCI-H460", "result": "> 100 µM (inactive)"},
      {"measurement": "GI50", "setting": "UACC-62", "result": "> 100 µM (inactive)"},
      {"measurement": "GI50", "setting": "SW-620", "result": "> 100 µM (inactive)"},
      {"measurement": "GI50", "setting": "LOX IMVI", "result": "> 100 µM (inactive)"},
      {"measurement": "GI50", "setting": "TK-10", "result": "> 100 µM (inactive)"},
      {"measurement": "GI50", "setting": "CAKI-1", "result": "> 100 µM (inactive)"},
      {"measurement": "GI50", "setting": "U-251", "result": "> 100 µM (inactive)"}
    ]}
  ]
}
